Source: patent publication US6806276B2, “2-oxoquinoline compounds and pharmaceutical uses thereof” (Japan Tobacco Inc., priority 1999, dated 2004)
Where a name gives a salt, the structure may show the parent alone. Read-outs that look alike come from different tables or passages of the source.

How the values were obtained:
[1] = target: T1, human central type cannabinoid receptor (hCB1) (Homo sapiens, UniProt P21554); test: Binding assay (in vitro), [3H]Win55212-2 displacement, membrane fractions of human CB1-CHO; details: hCB1 expressed in CHO cells, [3H]Win55212-2 2 nM, 30° C. 90 minutes
T1 construct: expressed in transfected cells; host or cells: CHO cells
T1 sequence (P21554 whole entry): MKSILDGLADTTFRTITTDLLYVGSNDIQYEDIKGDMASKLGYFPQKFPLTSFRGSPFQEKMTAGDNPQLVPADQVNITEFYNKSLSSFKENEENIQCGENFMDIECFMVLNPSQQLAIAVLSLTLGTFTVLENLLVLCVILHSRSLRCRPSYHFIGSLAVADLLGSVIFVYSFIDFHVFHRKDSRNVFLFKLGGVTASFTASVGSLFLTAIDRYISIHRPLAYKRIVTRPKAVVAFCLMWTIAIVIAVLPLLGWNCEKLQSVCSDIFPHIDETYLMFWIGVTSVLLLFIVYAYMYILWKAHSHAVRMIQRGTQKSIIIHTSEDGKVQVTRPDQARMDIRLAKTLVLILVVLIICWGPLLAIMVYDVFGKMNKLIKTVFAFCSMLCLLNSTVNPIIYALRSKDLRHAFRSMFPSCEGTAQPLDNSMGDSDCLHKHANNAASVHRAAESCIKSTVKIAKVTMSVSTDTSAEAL
Description: (§1) Membrane fractions of human central type cannabinoid receptor (human CB1-CHO, hereinafter called hCB1) and human peripheral type cannabinoid receptor (human CB2-CHO, hereinafter called hCB2) expressed in CHO cells were used as samples. The reference material (hCB1: 20 μg/ml, hCB2: 5 μg/ml), labeled ligand ([^3H]Win55212-2, 2 nM) and unlabeled ligand Win55212-2 or test compound were added to a 24-well round bottom plate, and the plate was incubated at 30° C. for 90 minutes. 50 mM Tris-HB55 containing 0.2% BSA was used as an assay buffer. After incubation, the mixture was filtered (Packard, Unifilter 24GF/B) and dried, and then a scintillation solution (Packard, Microsint-20) was added thereto to determine the radioactivity of the sample (Packard, Top count A9912V). Nonspecific binding was determined by the addition of excessive amount of Win55212-2 (10 μM), and specific binding was calculated by subtracting the nonspecific binding from total binding determined by the addition of the labeled ligand only. The test compound was dissolved in DMSO to make the final concentration in DMSO to be 0.1%. IC50 value was determined from the proportion of the bound test compound in the specific binding, and K1 value of the test compound was calculated from the ICso value and Kd value of [^3H]Win55212-2. K1 value for the central type receptors/K1 value for peripheral type receptors (C/S) was also calculated as an indicator of the selectivity of the test compound for peripheral type receptors.

[2] = system: carrageenin-induced paw edema; test: Carrageenin-induced paw edema model (in vivo); set-up: species or system C57BL/6J mice; details: mice, oral in olive oil 1 hour before carrageenin, paw volume 3 hours later
Description: [2] Carrageenin-induced paw edema model (in vivo)
C57BL/6J mice (6 to 8 weeks of age) were used. […] After one hour of the administration, 50 μl of 1% solution of carrageenin in normal saline was administered intradermally at foot pad of the right hind paw. Three hours later, the volume of the right hind paw was measured and compared with the initial volume.

[3] = target: T2, human peripheral type cannabinoid receptor (hCB2) (Homo sapiens, UniProt P34972); test: Binding assay (in vitro), [3H]Win55212-2 displacement, membrane fractions of human CB2-CHO; details: for Ki: hCB2 expressed in CHO cells, [3H]Win55212-2 2 nM, 30° C. 90 minutes; for C/S (Ki central type receptors / Ki peripheral type receptors): indicator of selectivity for peripheral type receptors
T2 construct: expressed in transfected cells; host or cells: CHO cells
T2 sequence (P34972 whole entry): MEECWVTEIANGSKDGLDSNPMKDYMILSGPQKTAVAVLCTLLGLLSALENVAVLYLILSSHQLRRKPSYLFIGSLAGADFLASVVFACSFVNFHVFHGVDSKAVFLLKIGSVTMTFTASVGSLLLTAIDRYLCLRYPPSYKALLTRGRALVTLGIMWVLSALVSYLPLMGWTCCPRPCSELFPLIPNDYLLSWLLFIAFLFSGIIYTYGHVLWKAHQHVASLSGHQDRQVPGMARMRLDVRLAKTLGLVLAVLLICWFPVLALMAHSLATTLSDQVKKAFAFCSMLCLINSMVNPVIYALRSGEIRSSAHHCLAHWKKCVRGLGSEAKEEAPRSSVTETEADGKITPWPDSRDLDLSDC
Description: as §1

[4] = Ki value Central type receptor (C)
[5] = Ki value Peripheral type receptor (S)
[6] = read-out: Ki value Central type receptor (C)
[7] = read-out: Ki value Peripheral type receptor (S)

For CCCCCOc1c(OC)ccc2cc(C(=O)NCCc3ccncc3)c(=O)n(C)c12 [Example 3-37, 1-methyl-7-methoxy-2-oxo-8-pentyloxy-1,2-dihydroquinoline-3-carboxylic acid (2-pyridine-4-ylethyl)amide], the Ki [1, 4] was 78 nM, the ED60 [2] was 0.63 mg/kg; p.o and the Ki [3, 5] was 0.75 nM. The “C/S (Ki central type receptors / Ki peripheral type receptors)” value [3] was 104.
CCCOc1c(OC)ccc2cc(C(=O)NCCc3ccc(F)cc3)c(=O)[nH]c12 [Example 3-27, 7-methoxy-2-oxo-8-propoxy-1,2-dihydroquinoline-3-carboxylic acid [2-(4-fluorophenyl)ethyl]amide] was tested, and the Ki [1, 6] was 336 nM, the ED60 [2] was 0.53 mg/kg; p.o and the Ki [3, 7] was 0.021 nM. For the same molecule, the “C/S (Ki central type receptors / Ki peripheral type receptors)” value [3] was 15990.
For CCCCCOc1c(OC)ccc2cc(C(=O)NCc3ccc(F)cc3)c(=O)n(C)c12 [Example 3-40, 1-methyl-7-methoxy-2-oxo-8-pentyloxy-1,2-dihydroquinoline-3-carboxylic acid (4-fluorobenzyl)amide], the Ki [1, 6] was 703 nM, the ED60 [2] was 1.19 mg/kg; p.o and the Ki [3, 5] was 2.13 nM. For the same molecule, the “C/S (Ki central type receptors / Ki peripheral type receptors)” value [3] was 330.
For CCCOc1c(OC)ccc2cc(C(=O)NCCc3ccncc3)c(=O)[nH]c12 [Example 3-26, 7-methoxy-2-oxo-8-propoxy-1,2-dihydroquinoline-3-carboxylic acid (2-pyridine-4-ylethyl)amide], the Ki [1, 6] was 648 nM, the ED60 [2] was 1.32 mg/kg; p.o and the Ki [3, 7] was 0.23 nM. The “C/S (Ki central type receptors / Ki peripheral type receptors)” value [3] was 2817.
With CCCCOc1c(OC)ccc2cc(C(=O)NCCc3ccc(F)cc3)c(=O)[nH]c12 [Example 3-15, 8-butoxy-7-methoxy-2-oxo-1,2-dihydroquinoline-3-carboxylic acid [2-(4-fluorophenyl)ethyl]amide] the Ki [1, 6] was 249 nM, the ED50 [2] was 0.41 mg/kg; p.o and the Ki [3, 5] was 0.016 nM. The “C/S (Ki central type receptors / Ki peripheral type receptors)” value [3] was 15580.
CCCCCOc1c(OC)ccc2cc(C(=O)NCCc3ccc(Cl)cc3)c(=O)[nH]c12 [Example 3-22, 7-methoxy-2-oxo-8-pentyloxy-1,2-dihydroquinoline-3-carboxylic acid [2-(4-chlorophenyl)ethyl]amide] was tested, and the Ki [1, 4] was 135 nM, the ED50 [2] was 0.76 mg/kg; p.o and the Ki [3, 5] was 0.2 nM. For the same molecule, the “C/S (Ki central type receptors / Ki peripheral type receptors)” value [3] was 675.
In the case of CCCCCOc1c(OC)ccc2cc(C(=O)NCCN3CCOCC3)c(=O)n(C)c12 [Example 3-38, 1-methyl-7-methoxy-2-oxo-8-pentyloxy-1,2-dihydroquinoline-3-carboxylic acid (2-morpholinoethyl) amide], the Ki [1, 6] is reported as 935 nM, the ED60 [2] is reported as 2.24 mg/kg; p.o and the Ki [3, 5] is reported as 0.085 nM. The “C/S (Ki central type receptors / Ki peripheral type receptors)” value [3] was 11002.
In the case of CCCCCOc1c(OC)ccc2cc(C(=O)NCc3ccc4c(c3)OCO4)c(=O)[nH]c12 [Example 3-5, 7-Methoxy-2-oxo-8-pentyloxy-1,2-dihydroquinoline-3-carboxylic acid (3,4-methylenedioxybenzyl)amide], the Ki [1, 6] is reported as 3440 nM and the ED50 [2] is reported as <0.10 mg/kg; p.o.
CCCCOc1c(OC)ccc2cc(C(=O)NCCc3ccncc3)c(=O)[nH]c12 [Example 3-17, 8-butoxy-7-methoxy-2-oxo-1,2-dihydroquinoline-3-carboxylic acid (2-pyridine-4-ylethyl)amide hydrochloride] was tested, and the Ki [1, 6] was 199 nM, the ED50 [2] was 1.39 mg/kg; p.o and the Ki [3, 5] was 0.23 nM. For the same molecule, the “C/S (Ki central type receptors / Ki peripheral type receptors)” value ([3]; hydrochloride) was 867.
